Molecules are shown by their SMILES.

One experiment has as its target T1, c-Src kinase (Homo sapiens, UniProt P12931).
T1 construct: purchased Cell Signaling Technology (Danvers, MA, USA) 7776
In words: c-Src kinase activity assay (HTScan Src Kinase Assay Kit). The following applies: concentration that inhibited enzyme activity by 50%; triplicate; read-out: IC50 (inhibition of Src kinase activity). The class given is biochemical. As to the method:
Streptavidin-coated plates were purchased from Pierce (Rockford, IL, USA). […] The reaction mixture was incubated for 30 min at room temperature. The kinase reaction was stopped with the addition of 50 μL of 50 mM EDTA (pH 8.0). […] At the end of the incubation, the wells were washed three times with 200 μL of 0.05% Tween-20 in PBS buffer (PBS/T). After that to each well was added 100 μL of phosphotyrosine antibody (P-Tyr-100) (1:1000 dilution in PBS/T with 1% BSA) and the wells were incubated for another 60 min. After washing three times with 0.05% Tween-20 in PBS/T, the wells were incubated with 100 μL secondary anti-mouse IgG antibody, which was HRP-conjugated (1:500 dilution in PBS/T with 1% BSA) for next 30 min at room temperature. The wells were washed five times with 0.05% Tween-20 in PBS and then were incubated with 100 μL of 3,3',5,5'-tetramethylbenzidine dihydrochloride (TMB) substrate for 5 min. The reaction was stopped by adding 100 μL/well of stop solution to each well and mixed well and read the absorbance at 450 nm using a microplate reader (Molecular devices, spectra Max M2). IC50 values of the compounds were calculated using ORIGIN 6.0 (origin lab) software. […] All the experiments were carried out in triplicate.

In experiment [1] the test system is breast carcinoma (BT-20) cell line. As to the kind of experiment: Cell proliferation assay (CellTiter 96) in BT-20 cells. The class given is cell-based. Particulars: DOX 10 μM, 72 h incubation, relative to DMSO control. As to the method: Breast carcinoma BT-20 (ATCC no. HTB-19) cell lines were obtained from American Type Culture Collection. Cells were grown on 75 cm^2 cell culture with EMEM medium for breast carcinoma and supplemented with 10% fetal bovine serum (FBS), and 1% penicillin-streptomycin solution (10,000 units of penicillin and 10 mg of streptomycin in 0.9% NaCl) in a humidified atmosphere of 5% CO2, 95% air at 37°C.
Cell proliferation assay of compounds was evaluated in BT-20 cells, and was compared with that of doxorubicin (DOX)[38]. Cell proliferation assay was carried out using CellTiter 96 aqueous one solution cell proliferation assay kit (Promega, USA). Briefly, upon reaching about 75-80% confluence, 5000 cells/well were plated in 96-well microplate in 100 μL media. After seeding for 72 h, the cells were treated with 50 μM compound in triplicate. […] The absorbance of the formazan product was measured at 490 nm using microplate reader. The blank control was recorded by measuring the absorbance at 490 nm with wells containing medium mixed with CellTiter 96 aqueous solution but no cells. Results were expressed as the percentage of the control (DMSO without compound set at 100%). The percentage of cell survival was calculated as (OD value of cells treated with test compound - OD value of culture medium) / (OD value of control cells – OD value of culture medium) × 100%. […]

The test system of experiment [2] is mesenchymal stem cell proliferation. Set-up: method as in PMID 9562601. Particulars: cited from earlier work.

T1 sequence (P12931 whole entry): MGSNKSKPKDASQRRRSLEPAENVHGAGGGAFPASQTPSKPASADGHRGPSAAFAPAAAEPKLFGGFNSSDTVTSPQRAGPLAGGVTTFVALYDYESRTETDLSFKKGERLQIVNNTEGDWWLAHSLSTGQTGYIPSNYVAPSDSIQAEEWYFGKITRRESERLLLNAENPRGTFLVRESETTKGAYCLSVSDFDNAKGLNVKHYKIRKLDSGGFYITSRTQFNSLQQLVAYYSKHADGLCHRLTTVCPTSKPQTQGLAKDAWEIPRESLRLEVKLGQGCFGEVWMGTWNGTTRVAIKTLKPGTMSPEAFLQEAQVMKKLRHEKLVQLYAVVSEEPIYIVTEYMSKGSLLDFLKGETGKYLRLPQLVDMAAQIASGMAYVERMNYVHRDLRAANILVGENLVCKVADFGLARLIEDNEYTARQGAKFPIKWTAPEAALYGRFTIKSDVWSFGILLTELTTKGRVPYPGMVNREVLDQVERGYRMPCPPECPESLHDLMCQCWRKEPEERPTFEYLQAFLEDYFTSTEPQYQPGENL

As a reminder, the IC50 is the concentration that gives 50% inhibition. Turning to `N#CC1=C(N)Oc2ccc3ccccc3c2C1c1cccc(O)c1` (stereo not drawn) [Compound 4m], the IC50 on c-Src kinase is 33.8 µM.

Consider `COc1cccc2c1C(=O)c1c(O)c3c(c(O)c1C2=O)C[C@@](O)(C(=O)CO)C[C@@H]3O[C@H]1C[C@H](N)[C@H](O)[C@H](C)O1` [doxorubicin], for which the “Inhibition of BT-20 cell growth (positive control)” value in experiment [1] stood at 25%.

Take `COc1ccc(C2C(C#N)=C(N)Oc3ccc4ccccc4c32)cc1` (stereo not drawn) [Compound 4n]: the IC50 on c-Src kinase came to 34.5 µM.

In the case of `N#CC1=C(N)Oc2c(ccc3ccccc23)C1c1ccccc1Cl` (stereo not drawn) [Compound 4d], the IC50 at c-Src kinase came out at 34.7 µM.

Consider `CSc1ccc(C2C(C#N)=C(N)OC3=C2CCc2ccccc23)cc1` (stereo not drawn) [compound B, 4-aryl-4H-5,6-dihydronaphtho[1,2-b]pyran], for which the IC50 in experiment [2] was 13 µM.

Regarding `N#CC1=C(N)Oc2ccc3ccccc3c2C1c1cccc(Cl)c1` (stereo not drawn) [Compound 4j], the IC50 on c-Src kinase amounted to 41.7 µM.

The values are drawn from article PMC3599540, “4-Aryl-4H-naphthopyrans derivatives: one-pot synthesis, evaluation of Src kinase inhibitory and anti-proliferative activities” (DARU Journal of Pharmaceutical Sciences, 2012).
